Measured values reported in paper PMC7247425, “MRP1-Collateral Sensitizers as a Novel Therapeutic Approach in Resistant Cancer Therapy: An In Vitro and In Vivo Study in Lung Resistant Tumor” (International Journal of Molecular Sciences, 2020).

Key:
sigma-2 receptors = details: cited from earlier work; for Ki: read-out: Ki towards sigma-2 receptors
MRP1 = MRP1 (Homo sapiens, UniProt P33527); experiment: Calcein-AM transport inhibition in MDCK-MRP1 cells (MRP1 activity)
Procedure: Each cell line (30,000 cells per well) was seeded into a black CulturePlate 96/well plate with a 100 μL medium and allowed to become confluent overnight. […] In these experimental conditions, the Calcein cell accumulation in the absence and in the presence of the tested compounds was evaluated and the fluorescence basal level was estimated with the untreated cells. In treated wells, the increase in fluorescence with respect to the basal level was measured. EC50 values were determined by fitting the fluorescence increase percentage vs. log(dose).

A549/DX = experiment: Intracellular total ROS production in A549/DX (DCFDA-AM); assay type: cell-based, human; details: for Intracellular ROS production with cis-Pt: 10 μM + 25 μM cis-Pt; for Intracellular ROS production with cis-Pt / Intracellular ROS production, compound alone: 24 h; for Intracellular ROS production, compound alone / Intracellular ROS production with ROS scavenger Tempol: 10 μM; for Intracellular ROS production with ROS scavenger Tempol: with 10 mM Tempol
Text: One of the possible reasons of this sensitization is the ability of these three compounds to inhibit the efflux of cis-Pt, which is MRP1-mediated. […] This could be associated with a second reason, considering one of the putative mechanisms of CS consisting of an increased production of ROS, capable of triggering the apoptosis of MDR cells. To investigate whether this mechanism is involved in the sensitizing effects elicited by F397, F400, and F421, we measured the intracellular ROS production in A549/DX after 24 h treatment with these three molecules at 10 μM, with and without 25 μM cis-Pt (Figure 5A). […] Moreover, to verify whether the increase in ROS induced the reduction in cell viability elicited by the compounds, we evaluated the antiproliferative effect at 72 h of these three sensitizers alone and with 25 μM cis-Pt, adding 10 mM Tempol at time zero and after 48 h from the incubation.
Here, 1 × 10^6 whole cells were re-suspended in a final volume of 0.5 mL PBS and incubated for 30 min at 37 °C with 5 μM of the fluorescent probe 5-(and-6)-chloromethyl-2’,7’-dichlorodihydro-fluorescein diacetate-acetoxymethyl ester (DCFDA-AM, Sigma Chemicals Co.) in the dark. Cells were then centrifuged at 13,000× g at 37 °C and re-suspended in 0.5 mL PBS. The fluorescence of each sample, considered as the index of ROS levels, was read at 492 (λ excitation) and 517 nm (λ emission) using a Synergy HT Multi-Mode Microplate Reader (Bio-Tek Instruments). The results were expressed as nmol total ROS/mg cell proteins. A preliminary titration curve was set up by incubating the cells for 1 h with the cells treated with serial dilutions (10–0.01 nM) of the pro-oxidant agent menadione.

MDCK-MRP1 cells = experiment: Antiproliferative MTT assay in MDCK-wt and MDCK-MRP1 cells, selectivity ratio; assay type: cell-based, canine; details: EC50 of MDCK cells/EC50 of MDCK-MRP1 cells
Procedure: Within the search for novel CS agents acting on MRP1 proteins, the compounds selected among the different series of sigma-2 ligands were investigated for their activity at MRP1, paralleled with their cytotoxicity in the parental Madin–Darby canine kidney (MDCK-wt) cells and in the MDR-derived cells (MDCK-MRP1) for the determination of their SR (EC50 parental cells/EC50 MDR cells). The activity at the MRP1 pump was determined measuring the transport inhibition of the pro-fluorescent probe Calcein-AM, an MRP1 substrate, in the MRP1-overexpressing cell line (MDCK-MRP1) by the in vitro biological assay usually performed to study an MRP1 interaction. […] The SR was measured as the EC50 of the MDCK cells/EC50 of the MDCK-MRP1 cells.
The determination of cell growth was performed using an MTT assay at 24 or 72 h. On day 1, 10,000 cells/well were seeded into 96-well plates in a volume of 100 μL. […] In all the experiments, the various drug solvents (ethanol, DMSO) were added in each control to evaluate a possible solvent cytotoxicity. After the established incubation time with drugs, 10 μL MTT (0.5 mg/mL) was added to each well, and after 3 h incubation at 37°C, the supernatant was removed. The formazan crystals were solubilized using 100 μL of DMSO and the absorbance values at 570 and 630 nm were determined on the microplate reader Victor 3 from PerkinElmer Life Sciences. The absorbance of the untreated cells was considered equal to 100% cell viability; the viability of cells measured in each experimental condition was expressed as a percentage of viable cells in the considered condition vs. the viability of the untreated cells.

A549/DX cells = experiment: Cytotoxicity in A549/DX and parental A549 cells, selectivity ratio; assay type: cell-based, human; details: cytotoxicity in parental A549 vs resistant A549/DX cells, 24 h
Text: Therefore, A549/DX cells were selected as a model to investigate the CS properties of our compounds. Firstly, in order to confirm the data observed on the “pure” model MDCK-MRP1, we tested, in the same experimental conditions, the SR of F397, F400, and F421 by measuring their cytotoxicity in the resistant A549/DX cells and their parental counterpart A549, obtaining an SR ≥ 2 for all (SR = 2.5 for derivative F397, SR = 2.1 for F400, and SR = 2 for F421).
Since the doubling time of A549 cells is 22 h and the doubling time of A549/DX cells is 61 h (data not shown), in this first experimental set we used a 24 h time, i.e., the most suitable for A549 cells’ cytotoxicity as performed in the “pure” MRP1 model. Indeed, the accurate detection of cell viability in A549 cells was critical in calculating the SR in a reliable manner. The following experiments, all performed in A549/DX cells, were performed after 72 h, i.e., the best timing to detect a cytotoxic effect on the slowly growing resistant population.
The determination of cell growth was performed using an MTT assay at 24 or 72 h. On day 1, 10,000 cells/well were seeded into 96-well plates in a volume of 100 μL. On day 2, the drugs concentrations (0.1, 1, 10, 25 μM) were added. In all the experiments, the various drug solvents (ethanol, DMSO) were added in each control to evaluate a possible solvent cytotoxicity. After the established incubation time with drugs, 10 μL MTT (0.5 mg/mL) was added to each well, and after 3 h incubation at 37°C, the supernatant was removed. The formazan crystals were solubilized using 100 μL of DMSO and the absorbance values at 570 and 630 nm were determined on the microplate reader Victor 3 from PerkinElmer Life Sciences. The absorbance of the untreated cells was considered equal to 100% cell viability; the viability of cells measured in each experimental condition was expressed as a percentage of viable cells in the considered condition vs. the viability of the untreated cells.

Sequence of MRP1 (P33527 whole entry): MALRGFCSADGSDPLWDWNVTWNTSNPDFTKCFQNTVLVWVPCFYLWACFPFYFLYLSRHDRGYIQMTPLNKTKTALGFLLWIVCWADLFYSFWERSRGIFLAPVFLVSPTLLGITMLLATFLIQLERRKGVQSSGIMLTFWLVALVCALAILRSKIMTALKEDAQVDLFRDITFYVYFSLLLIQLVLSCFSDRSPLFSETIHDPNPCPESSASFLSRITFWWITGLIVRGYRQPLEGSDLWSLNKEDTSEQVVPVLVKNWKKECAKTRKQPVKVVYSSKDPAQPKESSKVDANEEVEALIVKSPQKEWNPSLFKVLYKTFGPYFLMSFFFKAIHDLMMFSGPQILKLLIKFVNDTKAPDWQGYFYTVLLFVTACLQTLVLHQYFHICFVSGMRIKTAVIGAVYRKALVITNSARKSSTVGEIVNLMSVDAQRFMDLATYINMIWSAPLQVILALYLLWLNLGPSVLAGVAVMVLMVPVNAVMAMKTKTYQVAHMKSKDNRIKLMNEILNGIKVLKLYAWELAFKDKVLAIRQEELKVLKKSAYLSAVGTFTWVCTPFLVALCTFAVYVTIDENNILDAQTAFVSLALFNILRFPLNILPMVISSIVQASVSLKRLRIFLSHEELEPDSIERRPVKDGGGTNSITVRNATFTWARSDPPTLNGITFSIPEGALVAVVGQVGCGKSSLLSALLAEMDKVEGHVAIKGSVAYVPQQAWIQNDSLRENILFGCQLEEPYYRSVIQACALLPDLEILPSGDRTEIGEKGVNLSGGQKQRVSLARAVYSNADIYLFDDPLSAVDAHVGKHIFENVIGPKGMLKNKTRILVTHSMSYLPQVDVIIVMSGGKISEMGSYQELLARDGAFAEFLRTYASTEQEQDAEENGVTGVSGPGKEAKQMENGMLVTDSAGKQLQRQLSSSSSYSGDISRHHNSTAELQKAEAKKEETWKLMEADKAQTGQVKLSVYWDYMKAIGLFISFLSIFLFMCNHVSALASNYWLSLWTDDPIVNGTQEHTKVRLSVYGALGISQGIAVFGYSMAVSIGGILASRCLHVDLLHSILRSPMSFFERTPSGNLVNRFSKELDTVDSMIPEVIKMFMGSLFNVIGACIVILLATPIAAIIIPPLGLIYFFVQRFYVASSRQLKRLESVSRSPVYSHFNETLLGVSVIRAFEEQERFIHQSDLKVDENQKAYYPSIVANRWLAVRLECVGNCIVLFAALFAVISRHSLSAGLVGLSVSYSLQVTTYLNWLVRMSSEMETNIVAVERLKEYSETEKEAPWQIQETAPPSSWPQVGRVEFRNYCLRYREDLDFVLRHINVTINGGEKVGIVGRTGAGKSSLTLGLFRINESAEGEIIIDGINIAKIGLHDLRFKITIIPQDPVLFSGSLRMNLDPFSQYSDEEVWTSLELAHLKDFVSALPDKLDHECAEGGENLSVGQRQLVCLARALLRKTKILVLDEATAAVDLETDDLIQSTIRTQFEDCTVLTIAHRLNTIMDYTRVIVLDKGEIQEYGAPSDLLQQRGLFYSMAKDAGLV

Row | SMILES | Ki (sigma-2 receptors) [µM] | EC50 (MRP1) [µM] | Intracellular ROS production with cis-Pt (A549/DX) | Intracellular ROS production, compound alone (A549/DX) | Intracellular ROS production with ROS scavenger Tempol (A549/DX) | SR (selectivity ratio) (MDCK-MRP1 cells) | SR (selectivity ratio) (A549/DX cells) | sigma-2 receptor affinity (sigma-2 receptors)
1 | COc1cc2c(cc1OC)CN(CCCCc1cn(-c3ccc(F)cc3)c3ccccc13)CC2 [F397, 6,7-dimethoxy-2-{4-[1-(4-fluorophenyl)-1H-indol-3-yl]butyl}-1,2,3,4-tetrahydroisoquinoline] | 0.00534 | 16.7 ± 3.2 | further enhanced when they were co-administrated with the antineoplastic drug | increased the amount of intracellular ROS | reverted by the ROS scavenger Tempol | 3.41 | 2.5 | –
2 | COc1cc2c(cc1OC)CN(C(=O)CCC1CCCc3c(OC)cccc31)CC2 (stereo not drawn) [F400, 6,7-dimethoxy-2-[3-(5-methoxy-1,2,3,4-tetrahydronaphthalen-1-yl)propionyl]-1,2,3,4 tetrahydroisoquinoline] | – | 17.6 ± 3.8 | further enhanced when they were co-administrated with the antineoplastic drug | increased the amount of intracellular ROS | reverted by the ROS scavenger Tempol | 5.91 | 2.1 | devoid of sigma-2 receptor affinity
3 | COc1ccc(CNCCCCc2cn(-c3ccc(F)cc3)c3ccccc23)cc1OC [F421, N-{4-[1-(4-fluorophenyl)-1H-indol-3-yl]butyl}-3,4-dimethoxybenzylamine] | 0.169 | 28 ± 4.8 | further enhanced when they were co-administrated with the antineoplastic drug | increased the amount of intracellular ROS | reverted by the ROS scavenger Tempol | 2.47 | 2 | –
